“Also recorded” adds a separate entry of the source.
Key:
Colo-357 tumor spheroids = test: Apoptosis (caspase 3/7 activity) in Colo-357 tumor spheroids; type: cell-based; settings: with 8.9 µM cycloheximide, up to 100 µM
Experimental: (§1) Cell lines Panc-1 (ACC 783) and Colo-357 (CVCL_0221) were obtained through the validated collection of the pHioniC consortium (MSC-ITN 813834). Both cell lines were grown in RPMI1640, supplemented with 1 mM sodium pyruvate and 1% Glutamax (all Gibco Thermo-Fisher, Waltham, MA USA) 10%FBS (BioChrom, Berlin, Germany), at 5% CO2 and 37 °C in a humidified atmosphere.
(§2) Spheroids were cultured in round bottom ultra-low attachment 96-well plates (Corning). The optimal seeding densities were empirically determined (8000 cells/well for Colo-357 or 10,000 cells/well for Panc-1 spheroids. The cells were suspended in 2% Matrigel (Corning), centrifuged at 1000× g for 10 min and the spheroids were allowed to form in the incubator. Once the spheroids were formed, the treatments indicated together with 8.9 µM cycloheximide (as apoptosis sensitizer) were added and apoptosis was determined by live imaging in the Incucyte system in real time for approximately 60 h using Caspase-3/7 green reagent (Sartorius) as a reporter of apoptosis, which crosses the cell membrane and is cleaved by the activated Caspase-3/7, resulting in the fluorescent staining of nuclear DNA. Apoptosis on Panc-1 tumor spheroids is presented as integrated green fluorescence in the whole spheroid.

[1] = Turbidimetric solubility assay; type: physicochemical
Experimental: For the phosphate-buffered saline, we dissolved 2.38 g of disodium hydrogen phosphate dodecahydrate, 0.19 g of potassium dihydrogen phosphate, and 8.0 g of sodium chloride in water and diluted it to 1000 mL with the same solvent. Then we adjusted the pH to 7.4. The stock DMSO solutions of the compounds were prepared at concentrations of 50 mM, 20 mM, 10 mM, and 1 mM. The final solutions (500 µM, 200 µM, 100 µM, and 10 µM) were prepared by adding 2 µL of the stock DMSO solution to 198 µL of phosphate-buffered saline. The absorbance (area scan) was measured at 620 nm for sample volume of 200 µL and the appearance of the solutions was checked by visual inspection.

[2] = tested on: other KV1.x family channels or more distantly related channels; parameters: method as in PMID 32199306; settings: cited from earlier work
KV1.3 = KV1.3 (Homo sapiens, UniProt P22001); parameters: method as in PMID 32199306; settings: applied ex vivo to Kv1.3 expressing oocytes; read-out: IC50 KV1.3 (previous work); cited from earlier work
KV1.1 = KV1.1 (Rattus norvegicus, UniProt P10499); test: Selectivity, HiClamp Xenopus laevis heterologous expression system, KV1.1; type: cell-based; settings: 10 µM; HiClamp, oocytes
Experimental: (§3) Ion channels (Kv1.x, Kv2.1, Kv4.2, Kv10.1) were expressed in Xenopus laevis oocytes by linearization of the plasmids and subsequent in vitro transcription using a commercial T7 or SP6 mMESSAGE mMACHINE transcription kit (Ambion, Carlsbad, California, USA). Defolliculated Xenopus oocytes were then injected with 20–50 nL of the cRNA at a concentration of 1 ng/nL using a micro-injector (Drummond Scientific1, Broomall, PA, USA). The oocytes were incubated in a solution containing (in mM): NaCl, 96; KCl, 2; CaCl2, 1.8; MgCl2, 2 and HEPES, 5 (pH 7.5), supplemented with 50 mg/L gentamycin sulfate and 90 mg/L theophylline. After ex vivo translation, the ion channels were correctly inserted in the cell membrane of the oocytes.
(§4) Two-electrode voltage-clamp recordings were performed at room temperature (18–22 °C) using a Geneclamp 500 amplifier (Molecular Devices, San Jose, CA, USA) and pClamp data acquisition (Axon Instruments, Union City, CA, USA) and using an integrated digital TEVC amplifier controlled by HiClamp, an automated Voltage-Clamp Screening System (Multi Channel Systems MCS GmbH, Reutlingen, Germany). Whole-cell currents from oocytes were recorded 1–4 days after injection. The bath solution composition was ND96 (in mM): NaCl, 96; KCl, 2; CaCl2, 1.8; MgCl2, 2 and HEPES, 5 (pH 7.5). Voltage and current electrodes were filled with a 3 M solution of KCl in H2O. Resistances of both electrodes were kept between 0.5 and 1.5 MΩ. The elicited Kv1.x, Kv2.1, Kv4.2 and Kv10.1 currents were filtered at 0.5 kHz and sampled at 2 kHz using a four-pole low-pass Bessel filter. Leak subtraction was performed using a P/4 protocol.
(§5) For the electrophysiological analysis of the compounds, a number of protocols were applied from a holding potential of −90 mV. Currents for Kv1.x, Kv2.1, Kv4.2 and Kv10.1 were evoked by 1 s depolarizing pulses either to 0 mV or to a range of voltage steps between −80 mV and +40 mV. For the analysis of the data, only the inhibition at the 0 mV step was used. The concentration dependency of all compounds was assessed by measuring the current inhibition in the presence of increasing compound concentrations. […] From this stock solution, adequate dilutions with a maximum of 0.5% DMSO were made for testing.
(§6) All electrophysiological data (Figure S1) are presented as means ± S.E.M of n ≥ three independent experiments unless otherwise indicated. All data were analyzed using pClamp Clampfit 10.4 (Molecular Devices, Downingtown, PA, USA), OriginPro 9 (Originlab, Northampton, MA, USA), GraphPad Prism 8 software (GraphPad Software, Inc., San Diego, CA, USA) and DataMining (Multi Channel Systems MCS GmbH, Reutlingen, Germany). The Dunnett test and one-way ANOVA were performed to calculate the significance of the induced inhibition compared to the control.

KV1.2 = KV1.2 (Homo sapiens, UniProt P16389); test: Selectivity, HiClamp Xenopus laevis heterologous expression system, KV1.2; type: cell-based; settings: 10 µM; HiClamp, oocytes
Experimental: as §3, §4, §5, §6

KV1.4 = KV1.4 (Homo sapiens, UniProt P22459); test: Selectivity, HiClamp Xenopus laevis heterologous expression system, KV1.4; type: cell-based; settings: 10 µM; HiClamp, oocytes
Experimental: as §3
as §4, with “Resistances of both electrodes were kept between 0.5 and 1.5 MΩ. The elicited Kv1.x, Kv2.1, Kv4.2 and Kv10.1 currents were filtered at 0.5 kHz and sampled at 2 kHz using a four-pole low-pass Bessel filter. Leak subtraction was performed using a P/4 protocol.” left out
(§7) For the electrophysiological analysis of the compounds, a number of protocols were applied from a holding potential of −90 mV. […] The concentration dependency of all compounds was assessed by measuring the current inhibition in the presence of increasing compound concentrations. […]
(§8) All electrophysiological data (Figure S1) are presented as means ± S.E.M of n ≥ three independent experiments unless otherwise indicated. All data were analyzed using pClamp Clampfit 10.4 (Molecular Devices, Downingtown, PA, USA), OriginPro 9 (Originlab, Northampton, MA, USA), GraphPad Prism 8 software (GraphPad Software, Inc., San Diego, CA, USA) and DataMining (Multi Channel Systems MCS GmbH, Reutlingen, Germany). […]

KV1.5 = KV1.5 (Homo sapiens, UniProt P22460); test: Selectivity, HiClamp Xenopus laevis heterologous expression system, KV1.5; type: cell-based; settings: 10 µM; HiClamp, oocytes
Experimental: as §3, §4, §5, §6

KV1.6 = KV1.6 (Homo sapiens, UniProt P17658); test: Selectivity, HiClamp Xenopus laevis heterologous expression system, KV1.6; type: cell-based; settings: 10 µM; HiClamp, oocytes
Experimental: as §3, §4, §5, §6

KV2.1 = target: T1, KV2.1 (Homo sapiens, UniProt Q14721); test: Selectivity, HiClamp Xenopus laevis heterologous expression system, KV2.1; type: cell-based; settings: 10 µM; HiClamp, oocytes
T1 sequence (Q14721 1-858): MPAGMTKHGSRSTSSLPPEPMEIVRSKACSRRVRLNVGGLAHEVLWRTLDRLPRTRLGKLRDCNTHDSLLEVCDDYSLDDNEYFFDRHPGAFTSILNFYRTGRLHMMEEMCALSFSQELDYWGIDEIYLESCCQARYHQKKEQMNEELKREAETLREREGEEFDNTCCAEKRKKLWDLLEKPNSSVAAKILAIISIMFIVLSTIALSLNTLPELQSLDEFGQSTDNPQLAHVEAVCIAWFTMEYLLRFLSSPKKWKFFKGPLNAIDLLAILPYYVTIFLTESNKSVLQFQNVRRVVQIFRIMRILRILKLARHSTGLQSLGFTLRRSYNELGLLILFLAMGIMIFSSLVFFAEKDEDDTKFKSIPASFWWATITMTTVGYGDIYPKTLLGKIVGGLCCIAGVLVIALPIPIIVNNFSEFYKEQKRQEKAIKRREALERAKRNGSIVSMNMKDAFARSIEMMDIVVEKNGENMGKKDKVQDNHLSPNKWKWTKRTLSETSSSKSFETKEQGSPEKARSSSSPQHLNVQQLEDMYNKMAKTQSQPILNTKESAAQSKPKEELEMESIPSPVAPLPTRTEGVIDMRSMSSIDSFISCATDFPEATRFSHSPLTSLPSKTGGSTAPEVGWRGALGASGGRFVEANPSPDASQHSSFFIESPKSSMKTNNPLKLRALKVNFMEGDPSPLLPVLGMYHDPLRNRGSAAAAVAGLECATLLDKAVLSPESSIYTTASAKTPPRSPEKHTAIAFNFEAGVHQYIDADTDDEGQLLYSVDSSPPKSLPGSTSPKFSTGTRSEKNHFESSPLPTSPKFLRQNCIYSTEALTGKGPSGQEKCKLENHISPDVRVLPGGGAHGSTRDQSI
Experimental: as §3
as §4, with “Resistances of both electrodes were kept between 0.5 and 1.5 MΩ. The elicited Kv1.x, Kv2.1, Kv4.2 and Kv10.1 currents were filtered at 0.5 kHz and sampled at 2 kHz using a four-pole low-pass Bessel filter. Leak subtraction was performed using a P/4 protocol.” left out
as §7, §8

KV4.2 = KV4.2 (Homo sapiens, UniProt Q9NZV8); test: Selectivity, HiClamp Xenopus laevis heterologous expression system, KV4.2; type: cell-based; settings: 10 µM, oocytes
Experimental: as §3, with “After ex vivo translation, the ion channels were correctly inserted in the cell membrane of the oocytes.” left out
(§9) Two-electrode voltage-clamp recordings were performed at room temperature (18–22 °C) using a Geneclamp 500 amplifier (Molecular Devices, San Jose, CA, USA) and pClamp data acquisition (Axon Instruments, Union City, CA, USA) and using an integrated digital TEVC amplifier controlled by HiClamp, an automated Voltage-Clamp Screening System (Multi Channel Systems MCS GmbH, Reutlingen, Germany). Whole-cell currents from oocytes were recorded 1–4 days after injection. […]
as §7

KV10.1 = KV10.1 (Homo sapiens, UniProt O95259); test: Selectivity, HiClamp Xenopus laevis heterologous expression system, KV10.1; type: cell-based; settings: 10 µM; HiClamp, oocytes
Experimental: as §3, with “After ex vivo translation, the ion channels were correctly inserted in the cell membrane of the oocytes.” left out
as §9, §7

Panc-1 tumor spheroids = test: Apoptosis (caspase 3/7 activity) in Panc-1 tumor spheroids; type: cell-based; settings: with 8.9 µM cycloheximide
Experimental: as §1, §2

[3] = tested on: cancer cells (human SAOS2, mouse B16F10 melanoma, and human B-CLL); settings: PAP-1 20 µM, clofazimine 1 or 10 µM, with MDRi cyclosporine H (4 µM) and probenecid (100 µM); cited from earlier work
Panc-1 cell line = tested on: Panc-1 cell line; parameters: method as in PMID 29034212; settings: Panc-1; 20 µM; cited from earlier work
Colo-357 = tested on: Colo-357; parameters: method as in PMID 29034212; settings: read-out: EC50 cell death; cited from earlier work
[4] = tested on: KV1.1, KV1.2, KV1.5 and KV3.1; parameters: method as in PMID 19104661; settings: cited from earlier work
[5] = tested on: pancreatic ductal adenocarcinoma (PDAC) cell lines; settings: cited from earlier work
[6] = tested on: orthotopic PDAC xenotransplantation model; settings: orthotopic PDAC xenotransplantation model in SCID beige mice; cited from earlier work

Chain of KV1.4 (P22459 whole entry): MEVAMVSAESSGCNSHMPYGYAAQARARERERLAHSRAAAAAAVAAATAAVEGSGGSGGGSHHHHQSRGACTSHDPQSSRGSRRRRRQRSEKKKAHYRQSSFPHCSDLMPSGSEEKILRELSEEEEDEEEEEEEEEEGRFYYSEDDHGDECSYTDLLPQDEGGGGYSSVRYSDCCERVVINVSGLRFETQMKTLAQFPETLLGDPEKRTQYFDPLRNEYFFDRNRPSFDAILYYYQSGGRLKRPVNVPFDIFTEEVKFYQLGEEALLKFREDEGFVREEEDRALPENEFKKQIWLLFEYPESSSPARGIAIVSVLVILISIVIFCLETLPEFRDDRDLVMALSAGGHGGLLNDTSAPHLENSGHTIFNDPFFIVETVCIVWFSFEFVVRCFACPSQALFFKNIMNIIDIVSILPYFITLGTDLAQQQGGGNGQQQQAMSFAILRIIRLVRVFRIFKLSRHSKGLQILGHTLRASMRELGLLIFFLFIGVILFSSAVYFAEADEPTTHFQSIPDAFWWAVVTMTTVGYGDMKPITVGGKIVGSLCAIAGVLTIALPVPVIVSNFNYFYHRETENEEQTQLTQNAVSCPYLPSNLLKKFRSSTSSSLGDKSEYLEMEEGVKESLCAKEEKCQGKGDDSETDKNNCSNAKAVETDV
Chain of KV1.2 (P16389 whole entry): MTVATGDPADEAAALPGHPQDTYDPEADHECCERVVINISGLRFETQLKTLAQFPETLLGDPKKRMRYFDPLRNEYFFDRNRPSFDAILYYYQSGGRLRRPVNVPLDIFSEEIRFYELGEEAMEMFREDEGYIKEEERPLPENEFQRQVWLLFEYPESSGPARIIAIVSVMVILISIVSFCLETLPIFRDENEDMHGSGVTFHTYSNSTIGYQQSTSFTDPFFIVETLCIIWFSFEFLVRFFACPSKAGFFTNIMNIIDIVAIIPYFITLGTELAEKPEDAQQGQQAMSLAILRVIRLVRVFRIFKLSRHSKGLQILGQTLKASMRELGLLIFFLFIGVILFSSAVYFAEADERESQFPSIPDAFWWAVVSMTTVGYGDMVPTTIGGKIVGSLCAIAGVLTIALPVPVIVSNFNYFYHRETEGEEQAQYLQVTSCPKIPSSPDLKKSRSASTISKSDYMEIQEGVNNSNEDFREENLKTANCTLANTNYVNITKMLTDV
Chain of KV4.2 (Q9NZV8 whole entry): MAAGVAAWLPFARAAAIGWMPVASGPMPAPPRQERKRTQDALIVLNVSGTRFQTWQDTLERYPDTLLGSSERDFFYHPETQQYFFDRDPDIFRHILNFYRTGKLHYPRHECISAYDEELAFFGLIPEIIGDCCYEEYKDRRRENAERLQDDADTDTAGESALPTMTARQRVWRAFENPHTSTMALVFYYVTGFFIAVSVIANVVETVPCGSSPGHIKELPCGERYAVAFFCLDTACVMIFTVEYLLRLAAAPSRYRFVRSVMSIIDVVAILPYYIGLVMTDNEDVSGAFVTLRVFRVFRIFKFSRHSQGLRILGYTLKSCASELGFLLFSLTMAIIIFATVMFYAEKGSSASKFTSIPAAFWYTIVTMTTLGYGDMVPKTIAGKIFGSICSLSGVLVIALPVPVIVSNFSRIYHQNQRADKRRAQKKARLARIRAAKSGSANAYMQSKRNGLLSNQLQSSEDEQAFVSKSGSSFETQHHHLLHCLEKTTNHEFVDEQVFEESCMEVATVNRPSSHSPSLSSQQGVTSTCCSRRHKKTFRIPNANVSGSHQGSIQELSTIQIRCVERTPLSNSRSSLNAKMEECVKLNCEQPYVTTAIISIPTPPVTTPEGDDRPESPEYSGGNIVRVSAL
Chain of KV1.3 (P22001 whole entry): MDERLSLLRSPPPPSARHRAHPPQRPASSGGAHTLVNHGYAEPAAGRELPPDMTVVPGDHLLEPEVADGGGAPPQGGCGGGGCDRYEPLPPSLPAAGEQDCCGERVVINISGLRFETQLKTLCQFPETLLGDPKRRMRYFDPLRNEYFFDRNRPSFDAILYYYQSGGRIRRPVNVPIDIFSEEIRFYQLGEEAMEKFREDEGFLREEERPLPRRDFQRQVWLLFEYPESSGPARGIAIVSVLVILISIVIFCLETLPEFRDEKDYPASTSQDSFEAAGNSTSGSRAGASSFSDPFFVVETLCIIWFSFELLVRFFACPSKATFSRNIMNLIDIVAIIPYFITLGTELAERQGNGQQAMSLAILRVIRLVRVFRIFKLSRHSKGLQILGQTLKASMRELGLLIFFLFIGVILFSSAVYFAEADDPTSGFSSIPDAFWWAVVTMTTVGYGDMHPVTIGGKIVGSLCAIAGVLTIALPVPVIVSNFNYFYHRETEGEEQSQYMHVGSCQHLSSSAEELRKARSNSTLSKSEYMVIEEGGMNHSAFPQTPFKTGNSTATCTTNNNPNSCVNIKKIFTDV
Chain of KV10.1 (O95259 whole entry): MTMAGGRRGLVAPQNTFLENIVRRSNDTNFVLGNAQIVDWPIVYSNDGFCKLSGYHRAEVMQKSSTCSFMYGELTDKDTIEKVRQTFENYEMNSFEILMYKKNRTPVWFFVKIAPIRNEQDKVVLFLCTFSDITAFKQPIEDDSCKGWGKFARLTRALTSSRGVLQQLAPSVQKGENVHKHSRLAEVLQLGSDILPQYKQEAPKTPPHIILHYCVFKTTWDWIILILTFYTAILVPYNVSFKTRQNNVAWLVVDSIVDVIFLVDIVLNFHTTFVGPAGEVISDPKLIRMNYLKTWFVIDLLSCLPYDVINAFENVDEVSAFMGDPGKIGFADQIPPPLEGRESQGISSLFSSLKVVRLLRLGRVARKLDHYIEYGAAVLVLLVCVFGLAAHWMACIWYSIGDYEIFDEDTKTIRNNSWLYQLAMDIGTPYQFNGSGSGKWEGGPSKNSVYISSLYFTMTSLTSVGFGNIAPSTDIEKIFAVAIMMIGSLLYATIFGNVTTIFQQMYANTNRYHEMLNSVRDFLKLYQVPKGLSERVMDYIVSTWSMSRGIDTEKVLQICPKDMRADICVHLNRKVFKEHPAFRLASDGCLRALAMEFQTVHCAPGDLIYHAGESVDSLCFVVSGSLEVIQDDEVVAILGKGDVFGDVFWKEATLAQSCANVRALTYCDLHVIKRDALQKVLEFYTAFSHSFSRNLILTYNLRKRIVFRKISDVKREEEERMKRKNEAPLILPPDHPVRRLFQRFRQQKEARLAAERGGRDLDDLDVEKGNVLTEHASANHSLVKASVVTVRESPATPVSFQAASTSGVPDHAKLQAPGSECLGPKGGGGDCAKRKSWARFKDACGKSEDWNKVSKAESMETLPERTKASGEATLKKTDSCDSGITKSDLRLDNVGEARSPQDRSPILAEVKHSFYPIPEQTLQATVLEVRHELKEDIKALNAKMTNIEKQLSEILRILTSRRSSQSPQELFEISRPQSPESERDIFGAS
Chain of KV1.6 (P17658 whole entry): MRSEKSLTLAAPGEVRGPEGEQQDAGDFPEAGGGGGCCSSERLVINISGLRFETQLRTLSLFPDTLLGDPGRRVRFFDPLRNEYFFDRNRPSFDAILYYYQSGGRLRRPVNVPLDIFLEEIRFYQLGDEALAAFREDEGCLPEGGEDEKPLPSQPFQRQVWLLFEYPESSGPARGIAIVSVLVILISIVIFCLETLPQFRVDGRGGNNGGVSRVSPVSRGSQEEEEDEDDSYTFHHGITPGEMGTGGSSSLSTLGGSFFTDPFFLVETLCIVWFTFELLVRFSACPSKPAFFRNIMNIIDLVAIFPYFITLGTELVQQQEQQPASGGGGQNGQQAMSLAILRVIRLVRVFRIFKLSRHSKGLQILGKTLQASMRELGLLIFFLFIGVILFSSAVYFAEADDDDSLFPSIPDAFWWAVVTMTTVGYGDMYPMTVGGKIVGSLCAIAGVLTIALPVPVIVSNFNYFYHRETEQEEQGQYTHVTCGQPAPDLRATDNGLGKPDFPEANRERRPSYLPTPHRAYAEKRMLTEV
Chain of KV1.1 (P10499 whole entry): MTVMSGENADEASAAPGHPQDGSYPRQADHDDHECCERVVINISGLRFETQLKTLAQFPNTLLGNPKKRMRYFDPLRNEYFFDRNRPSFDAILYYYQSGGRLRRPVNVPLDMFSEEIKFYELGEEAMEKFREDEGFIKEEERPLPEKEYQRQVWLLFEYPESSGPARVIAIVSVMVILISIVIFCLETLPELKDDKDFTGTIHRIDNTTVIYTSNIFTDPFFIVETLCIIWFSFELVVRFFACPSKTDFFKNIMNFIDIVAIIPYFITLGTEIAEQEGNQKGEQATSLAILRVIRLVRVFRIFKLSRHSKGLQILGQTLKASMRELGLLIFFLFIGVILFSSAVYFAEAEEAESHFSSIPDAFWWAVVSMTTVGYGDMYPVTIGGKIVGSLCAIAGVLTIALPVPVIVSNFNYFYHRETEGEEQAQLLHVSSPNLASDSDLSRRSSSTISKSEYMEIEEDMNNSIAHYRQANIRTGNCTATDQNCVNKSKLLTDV
Chain of KV1.5 (P22460 whole entry): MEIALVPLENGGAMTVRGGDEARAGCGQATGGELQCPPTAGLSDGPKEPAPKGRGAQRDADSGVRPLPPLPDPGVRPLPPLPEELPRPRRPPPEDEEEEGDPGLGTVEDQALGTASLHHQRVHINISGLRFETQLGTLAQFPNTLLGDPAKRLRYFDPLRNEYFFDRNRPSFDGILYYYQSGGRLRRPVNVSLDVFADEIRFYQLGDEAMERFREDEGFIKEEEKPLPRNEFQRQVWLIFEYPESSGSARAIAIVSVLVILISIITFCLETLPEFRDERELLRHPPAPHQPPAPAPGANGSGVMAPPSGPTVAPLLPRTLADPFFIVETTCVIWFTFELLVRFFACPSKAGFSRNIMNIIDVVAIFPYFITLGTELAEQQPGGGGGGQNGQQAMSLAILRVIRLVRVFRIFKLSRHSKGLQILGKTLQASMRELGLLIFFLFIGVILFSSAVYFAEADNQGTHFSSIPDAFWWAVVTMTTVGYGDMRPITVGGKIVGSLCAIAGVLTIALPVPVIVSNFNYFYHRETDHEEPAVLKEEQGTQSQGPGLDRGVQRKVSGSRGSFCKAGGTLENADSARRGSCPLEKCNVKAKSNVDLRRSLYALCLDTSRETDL

COc1ccccc1C(=O)NCC1(c2ccsc2)CCCC1 [Compound 4]
Induction of apoptosis in Colo-357 spheroids (Colo-357 tumor spheroids): significant induction of apoptosis; also recorded: induced a significant amount of apoptosis | absorbance at 620 nm ([1]; 10 µM in PBS with 1 % final DMSO): 0 | absorbance at 620 nm ([1]; 100 µM in PBS with 1 % final DMSO): 0,035 | absorbance at 620 nm ([1]; 200 µM in PBS with 1 % final DMSO): 0,127 | absorbance at 620 nm ([1]; 500 µM in PBS with 1 % final DMSO): 0,189 | Effect on other KV1.x family channels or more distantly related channels [2]: did not affect

COc1ccccc1C(=O)NCC1(c2ccccc2)CCOCC1 [Compound 5]
IC50 (KV1.3): 920 nM

O=c1ccc2c(OCCCCOc3ccccc3)c3ccoc3cc2o1 [PAP-1 (1), PAP-1, reference compound]
Effect on KV1.1 channel (KV1.1): no significant effects | Effect on KV1.2 channel (KV1.2): no significant effects | Effect on KV1.4 channel (KV1.4): no significant effects | Effect on KV1.5 channel (KV1.5): no significant effects | Effect on KV1.6 channel (KV1.6): no significant effects | Effect on KV2.1 channel (KV2.1): no significant effects | Effect on KV4.2 channel (KV4.2): no significant effects | Effect on KV10.1 channel (KV10.1): no significant effects | Induction of apoptosis in Panc-1 spheroids (Panc-1 tumor spheroids): did and induce significant apoptosis | Induction of apoptosis in cancer cells [3]: induced mild apoptosis

CC(C)/N=c1\cc2n(-c3ccc(Cl)cc3)c3ccccc3nc-2cc1Nc1ccc(Cl)cc1 [clofazimine (3), clofazimine]
cell death (Panc-1 cell line): less than 30% | EC50 (Colo-357): 1500 nM | Potency on KV1.3 relative to KV1.1, KV1.2, KV1.5 and KV3.1 [4]: tenfold higher potency | Induction of apoptosis in cancer cells [3]: induced mild apoptosis | EC50 apoptosis in PDAC cell lines [5]: micromolar range | Induction of apoptosis in PDAC cell lines [5]: induced significant apoptosis | Primary tumor weight [6]: significantly reduced

From paper PMC9179341, “Design of New Potent and Selective Thiophene-Based KV1.3 Inhibitors and Their Potential for Anticancer Activity” (Cancers, 2022)
